Data taken from patent US9493460B2, “Diimide compounds” (UCL BUSINESS PLC, priority 2013, dated 2016).
Entries after “also recorded” stand apart in the source; their conditions may differ.

Assays:
A549 (lung) cells = test: SRB growth inhibition assay, 96 hr exposure, A549; assay type: cell-based, human; details: Homo sapiens, A549, 96 h exposure
Procedure, shortened: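 SRB growth inhibition was measured after 96 h exposure to 2-fold serial dilutions of compound, with cells maintained at 37 °C in 5% CO2 and medium containing 10% FBS. Absorbance at 540 nm was expressed as a percentage of untreated control wells. IC50 was derived from these values.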

[1] = test system: 83 human genes involved in DNA damage signaling responses in Mia-PaCa2 cells; test: qPCR array, DNA damage signaling response genes; assay type: cell-based
Method: (§1) Following compound exposure, cells were washed twice in PBS, harvested by trypsinisation, collected by centrifugation (300 g, 5 min, 4° C.) and re-suspended in RLT buffer (Qiagen). Samples were homogenised using QIAshredder spin columns and stored at −80° C. prior to RNA extraction. Three biological replicates were performed on separate days.
(§2) The expression of (i) 83 key human genes involved in telomere replication and maintenance, and (ii) 83 human genes involved in DNA damage signaling responses, was assessed using PCR arrays (SABiosciences). Total RNA was extracted from approximately 1×10^7 Mia-PaCa2 cells treated for 24 h with compound 3d, using the RNeasy kit (Qiagen) with on-column DNaseI treatment to remove residual genomic DNA. The quality of the harvested RNA was confirmed by nanodrop spectroscopy and by analysis with a Human RT^2 RNA QC PCR Array. First-strand cDNA synthesis was performed with the RT^2 first strand kit and qPCR was carried out using the RT^2 qPCR master mix (Qiagen) using 0.5 μg total RNA per array plate in a Stratagene MX-3000P instrument (Agilent, USA). Relative gene expression was determined by the ΔΔCT method using the web-based RT^2 Profiler™ PCR Array Data Analysis software (SABiosciences). Data were normalized to the geometric mean of five housekeeping genes (RPLP10, β-actin, B2M, GAPDH and HPRT1).
Various quadruplex-stabilising agents are known to induce pronounced DNA damage responses. We therefore next assessed the effect of 3d on the transcription of genes associated with DNA damage response and repair pathways. For these pathways the effect of a cytotoxic dosage of 3d (160 nM) on Mia-PaCa2 cells was also tested to assess the correlation between compound-induced DNA damage and cell killing. […] The latter two groups appeared to reflect a dynamic switch in the cellular response from low-level growth inhibition up to 40 nM of 3d to cytostatic then cytotoxic effects at 80 nM and 160 nM respectively.
Instead the response was dominated by genes with roles in growth arrest and more general stress responses.

[2] = test system: Mia-Paca2 human pancreatic tumour xenografts; test: MiaPaca-2 tumour xenograft; assay type: in vivo, CD1 nu/nu female mice
Method: CD1 nu/nu female mice (7-8 weeks old) were housed in microisolator cages, fed with commercial mouse food (Food Harlam 2018, Madison, USA) and allowed to acclimatise for seven days before any procedure. Exponentially growing MiaPaca-2 cells (5×10^6 cell/100 uL unsupplemented RPMI) were inoculated subcutaneously into the right flank (100 uL per mice). Measurements of tumour growth were carried out at least twice a week with digital callipers until tumour masses reached an average size of 0.1 cm^3. Tumour volume was calculated by using the standard formula for determining the volume of an ellipsoid ([length×width×depth×π]/6)).
In a first experiment, mice were allocated into groups (six mice per group) as follows: control group (IV 100 uL/10g sterile PBS) and single dose of 20 mg/kg of 3d (IV 100 uL/10 g body weight in sterile PBS).
In a subsequent experiment using CD1 nu/nu female mice as described above, mice were allocated into groups (six mice per group) as follows: control group (IV 100 uL/10 g sterile PBS) and 3d at 15 mg/kg given once weekly. […] In the control group the median time to endpoint was 42 days compared to 79 days in the treated group.

[3] = test system: 83 human genes involved in telomere replication and maintenance in Mia-PaCa2 cells; test: qPCR array, telomere replication and maintenance genes; assay type: cell-based
Method: as §1, §2
Dose-response curves were used to guide the choice of compound concentration and time-points for the array experiments (FIG. 2a). […] To explore this response continuum the transcriptional signature of cells exposed for 24 h to 20 nM, 40 nM, 80 nM concentrations of 3d, or solvent alone as control, was analysed as described in Materials and Methods.
However, changes in transcript abundance were modest, with only seven of these genes (MYC, NHP2, PPARG, PRKCB, PTEGES3, RASSF1 and SLX4) showing greater than two-fold abundance changes (FIGS. 2d and 2e).

CN1CCN(CCCNc2cc3c4c(c(NCCCN5CCN(C)CC5)cc5c4c2C(=O)N(CCCN2CCOCC2)C5=O)C(=O)N(CCCN2CCOCC2)C3=O)CC1 [Compound 3d, 4,9-bis((3-(4-methylpiperazin-1-yl)propyl)amino)-2,7-bis(3-morpholinopropyl)benzo[lmn][3,8]phenanthroline-1,3,6,8(2H,7H)-tetraone]
IC50 (A549 (lung) cells): 10 to 20 nM
expression of DNA damage checkpoint genes ATM and ATR ([1]; 24 h): no significant induction or repression
induction of γ-H2AX ([1]; Mia-PaCa2 cells, data not shown): no apparent induction; also recorded: do not appear to induce these particular changes
expression of CDKN1A, DDIT3 and GADD45G ([1]; cytotoxic concentrations): strongly up-regulated
expression of the PARP gene ([1]; dose-dependent): down-regulated
expression of CDKN1A, DDIT3 and GADD45G ([1]; lower concentrations): strongly down-regulated
number of DNA damage response genes significantly increased or decreased greater than 2-fold ([1]; of 83 genes, 20, 40, 80 or 160 nM, 24 h): 16 genes
antitumour response ([2]; 15 mg/kg once weekly): sustained antitumour response
median time to endpoint ([2]; 15 mg/kg once weekly, control group 42 days): 79 days
mice with a complete response, tumour free at 136 days ([2]; 15 mg/kg once weekly, of six mice): two
tumour growth compared to untreated controls ([2]; single dose 20 mg/kg IV): significant growth delay
number of telomere maintenance genes with greater than two-fold abundance changes ([3]; 20, 40 or 80 nM, 24 h): seven
expression of the gene encoding POT1 ([3]; borderline of statistical significance): down-regulation
number of telomere maintenance genes up or down-regulated to a statistically significant level (P<0.05) ([3]; of 83 genes, 20, 40 or 80 nM, 24 h): 30 genes
